Data as given in patent publication US8017315B2, “Mitochondrial localization of MUC1” (Dana Farber Cancer Institute, Inc., priority 2005, dated 2011).
Values belong to the molecule of their own block, whether it stands above or below them. Ends that are not written are not given here.

How the values were obtained:
[1] = tested on: purified recombinant human HSP90; test: GST pull-down binding study with recombinant HSP90; details: for binding to HSP90 after incubation with c-Src and ATP: GST fusion proteins incubated with c-Src and ATP 20 minutes at 30° C., then HSP90 1 hour at 4° C.
Description: (§1) Binding Studies. Sequences encoding MUC1-CD, MUC1-CD(1-45), or MUC1-CD(46-72) were amplified by PCR and cloned into the pGEX-4T vector (Amersham Biosciences, Piscataway, N.J.). Purified GST-MUC1-CD fusion proteins bound to glutathione beads were incubated with purified recombinant human HSP70 or HSP90 (Stressgen Biotechnologies) for 1 hour at 4° C. In other experiments, the purified GST fusion proteins bound to glutathione beads were incubated with or without 50 ng c-Src (Upstate Biotechnology) in the presence of […] for 20 minutes at 30° C. HSP90 was then added for 1 hour at 4° C. Precipitated proteins were subjected to immunoblot analysis with anti-HSP70 or anti-HSP90.

[2] = target: HSP70 (endogenous, in lysates of human cells) (human) (UniProt P0DMV8); test: anti-MUC1-N immunoprecipitation from HCT116/MUC1 lysates, immunoblot, scanning densitometry
[3] = tested on: binding of MUC1 and HSP90; test: MUC1-HSP90 co-immunoprecipitation and immunoblot in cells; type: cell-based, Human
Description: Cell culture. […] Human ZR-75-1 breast cancer cells were cultured in RPMI1640 medium containing 10% HI-FBS, antibiotics and L-glutamine. Cells were grown to 60% confluence and then maintained overnight in medium with 0.1% serum before treatment with heregulin (HRG; 20 ng/ml; Calbiochem-Novabiochem, LaJolla, Calif.).
Immunoprecipitation and immunoblotting. […] Lysates not subjected to immunoprecipitation were immunoblotted with anti-MUC1-C, anti-HSP60 (Stressgen Biotechnologies, Victoria, BC, Canada), anti-PDGFR (Santa Cruz Biotechnology), anti-BAP31 (Abcam, Cambridge, Mass.), anti-PCNA (Calbiochem-Novabiochem), anti-IkBa (Santa Cruz Biotechnology), anti-calreticulin (Stressgen Biotechnologies), anti-Tom20 (BD Biosciences), anti-Tim23 (BD Biosciences), anti-Tim44 (BD Biosciences) or anti-β-actin (Sigma-Aldrich). Reactivity was detected with horseradish peroxidase-conjugated secondary antibodies and chemiluminescence (PerkinElmer Life Sciences, Boston, Mass.). Intensity of the signals was determined by densitometric scanning. Statistical significance was determined by the Student's t-test.
Subcellular fractionation. […] SM buffer ([…]) was added to one aliquot, and hypotonic buffer (10 mM MOPS-KOH, pH 7.2; […]) was added to the other aliquot. The samples were incubated for 15 minutes on ice and then left untreated or digested with […] trypsin (Sigma-Aldrich) for 15 minutes at 4° C. In other experiments, purified mitochondria in suspension buffer (5 mM HEPES, pH 7.4, 210 mM mannitol, 70 mM sucrose, 100 mM KCl, and 1 mM EGTA) were treated with 0.5% or 1% digitonin (Sigma-Aldrich) for 15 minutes at 4° C. Alternatively, the mitochondria were incubated with 0.5% digitonin for 1 minute at 4° C., diluted with suspension buffer, and then treated with […] trypsin for 15 minutes at 4° C.

[4] = tested on: binding of MUC1 and HSP70; test: MUC1-HSP70 co-immunoprecipitation and immunoblot in cells; type: cell-based, Human; details: HRG 10 minutes
Description: (§2) Cell culture. Human HCT116/vector, HCT116/MUC1, HCT116/MUC1(Y46F) (Ren et al. (2004) Cancer Cell 5:163-175) and HCT116/MUC1-CD (Huang et al. (2003) Cancer Biol. Ther. 2:702-706) cells were cultured in Dulbecco's Modified Eagle Medium/F12 with 10% heat-inactivated fetal bovine serum (HI-FBS), 100 units/ml penicillin, […], and 2 mM L-glutamine. Human HeLa cervical carcinoma, 293 embryonic kidney and MCF-7 breast cancer cells were grown in Dulbecco's Modified Eagle Medium containing 10% HI-FBS, antibiotics and L-glutamine. Human ZR-75-1 breast cancer cells were cultured in RPMI1640 medium containing 10% HI-FBS, antibiotics and L-glutamine. Cells were grown to 60% confluence and then maintained overnight in medium with 0.1% serum before treatment with heregulin (HRG; 20 ng/ml; Calbiochem-Novabiochem, LaJolla, Calif.).
Immunoprecipitation and immunoblotting. Equal amounts of protein from cell lysates were incubated with anti-MUC1-N (antibody DF3) (Kufe et al. (1984) Hybridoma 3:223-232), anti-Flag (Sigma-Aldrich, St. Louis, Mo.), anti-c-Src (Upstate Biotechnology, Lake Placid, N.Y.), anti-HSP90 (BD Biosciences PharMingen, San Diego, Calif.) or normal mouse IgG (Santa Cruz Biotechnology, Santa Cruz, Calif.) for 2 hours at 4° C. Immune complexes were prepared as described (Li et al. (1998) Mol. Cell. Biol. 18:7216-7224) and subjected to immunoblot analysis with anti-HSP70, anti-HSP90, anti-MUC1-N, anti-MUC1-C (Ab5; Neomarkers, Fremont, Calif.), anti-phospho-c-Src(Tyr416) (Cell Signaling Technology, Beverly, Mass.) or anti-c-Src. […] Reactivity was detected with horseradish peroxidase-conjugated secondary antibodies and chemiluminescence (PerkinElmer Life Sciences, Boston, Mass.). Intensity of the signals was determined by densitometric scanning. Statistical significance was determined by the Student's t-test.

cytosolic MUC1-C levels = test: Immunoblot of cytosolic fractions for MUC1-C; type: cell-based, Human; details: cytosolic fraction of HCT116/MUC1 cells; HRG 10 minutes
Description: as §2
(§3) Immunoprecipitation and immunoblotting. […] Reactivity was detected with horseradish peroxidase-conjugated secondary antibodies and chemiluminescence (PerkinElmer Life Sciences, Boston, Mass.). Intensity of the signals was determined by densitometric scanning. Statistical significance was determined by the Student's t-test. […]

c-Src = c-Src (Homo sapiens, UniProt P12931); test: c-Src activation (autophosphorylation), anti-c-Src immunoprecipitation and immunoblot; type: cell-based; details: HCT116/MUC1 cells
Description: as §2
Immunoprecipitation and immunoblotting. […] Reactivity was detected with horseradish peroxidase-conjugated secondary antibodies and chemiluminescence (PerkinElmer Life Sciences, Boston, Mass.). Intensity of the signals was determined by densitometric scanning. Statistical significance was determined by the Student's t-test.

[5] = tested on: localization of MUC1-C to mitochondria; test: Immunoblot of purified mitochondria for MUC1 targeting; type: cell-based, Human; details: HCT116/MUC1 cells
Description: as §2, §3

[6] = target: T1, purified recombinant human HSP70 (Homo sapiens, UniProt P0DMV8); test: GST pull-down binding study with recombinant HSP70; details: GST fusion proteins on glutathione beads, 1 hour at 4° C., no c-Src
T1 construct: purchased Stressgen Biotechnologies
T1 sequence (P0DMV8 2-641 limits assumed): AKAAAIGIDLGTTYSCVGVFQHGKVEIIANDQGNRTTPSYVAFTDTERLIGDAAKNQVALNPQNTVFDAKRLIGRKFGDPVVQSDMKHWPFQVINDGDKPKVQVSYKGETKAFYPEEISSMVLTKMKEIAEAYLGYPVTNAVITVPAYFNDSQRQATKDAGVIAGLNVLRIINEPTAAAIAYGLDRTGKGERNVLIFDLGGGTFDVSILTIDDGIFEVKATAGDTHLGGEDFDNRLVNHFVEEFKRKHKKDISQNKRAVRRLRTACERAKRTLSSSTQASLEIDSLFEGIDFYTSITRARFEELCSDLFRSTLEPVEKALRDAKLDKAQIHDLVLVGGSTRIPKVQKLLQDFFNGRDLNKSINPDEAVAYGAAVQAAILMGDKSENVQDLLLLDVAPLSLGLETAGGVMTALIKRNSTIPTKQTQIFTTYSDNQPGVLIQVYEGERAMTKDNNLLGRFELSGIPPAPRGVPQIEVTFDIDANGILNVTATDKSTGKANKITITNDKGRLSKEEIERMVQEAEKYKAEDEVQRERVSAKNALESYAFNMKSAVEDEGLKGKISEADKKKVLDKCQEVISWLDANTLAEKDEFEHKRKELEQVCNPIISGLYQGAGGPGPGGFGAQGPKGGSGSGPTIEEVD
Description: as §1

[7] = target: T2, purified recombinant human HSP90 (human, UniProt P08238 1-724, limits assumed); test: GST pull-down with recombinant HSP90 after incubation with c-Src and ATP, anti-HSP90 immunoblot
T2 construct: Bought (Stressgen Biotechnologies); also called recombinant HSP90
T2 sequence (P08238 whole entry T147R/R177M): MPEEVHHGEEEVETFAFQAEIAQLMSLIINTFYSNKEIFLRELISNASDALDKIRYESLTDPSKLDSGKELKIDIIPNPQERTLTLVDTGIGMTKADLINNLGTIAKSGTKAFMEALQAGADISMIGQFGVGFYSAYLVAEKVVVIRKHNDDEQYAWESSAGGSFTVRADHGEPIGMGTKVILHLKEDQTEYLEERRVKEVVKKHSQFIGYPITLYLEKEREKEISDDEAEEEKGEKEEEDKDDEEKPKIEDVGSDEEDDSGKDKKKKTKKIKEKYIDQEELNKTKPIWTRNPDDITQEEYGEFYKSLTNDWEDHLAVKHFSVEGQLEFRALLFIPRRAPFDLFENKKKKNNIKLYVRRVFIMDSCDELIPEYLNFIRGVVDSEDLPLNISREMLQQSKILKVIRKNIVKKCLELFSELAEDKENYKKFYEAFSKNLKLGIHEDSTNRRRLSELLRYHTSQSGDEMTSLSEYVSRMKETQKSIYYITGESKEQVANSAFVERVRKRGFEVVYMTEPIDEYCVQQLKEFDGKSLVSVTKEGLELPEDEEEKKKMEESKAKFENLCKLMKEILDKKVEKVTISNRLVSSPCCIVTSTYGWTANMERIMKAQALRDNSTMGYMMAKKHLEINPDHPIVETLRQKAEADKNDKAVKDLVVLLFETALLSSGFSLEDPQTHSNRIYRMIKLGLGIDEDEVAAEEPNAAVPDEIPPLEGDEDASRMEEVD

Molecule: MUC1-CD(1-45): GST fusion deletion mutant, amino acids 1-45 of the MUC1 cytoplasmic domain (CQCRRKNYGQLDIFPARDTYHPMSEYPTYHTHGRYVPPSSTDRSP; not fully specified; cysteine pairing not given here; also: fused to GST)
binding to HSP90 after incubation with c-Src and ATP [1]: no detectable binding of HSP90

Molecule: CC(C)(C)n1nc(-c2ccc(Cl)cc2)c2c(N)ncnc21 [PP2, reference compound]
HRG-induced binding of MUC1 and HSP90 in presence of inhibitor ([3]; HCT116/MUC1 cells, PP2 10 μM or GA 1 μM for 1 hour, then HRG, anti-MUC1-N precipitates): attenuated this response
HRG-induced c-Src activation (c-Src; PP2 10 μM for 1 hour, then HRG 20 ng/ml 10 minutes): blocked HRG-induced c-Src activation
HRG-induced targeting of MUC1 to mitochondria in presence of inhibitor ([5]; PP2 or GA for 1 hour, then HRG): attenuated

Molecule: MUC1-CD: GST fusion of the 72 amino acid MUC1 cytoplasmic domain (SEQ ID NO:1)
binding to HSP70 [6]: binds to HSP70
binding to HSP90 ([1]; GST fusion protein on glutathione beads, 1 hour at 4° C., no c-Src): but not HSP90
binding to HSP90 after incubation with c-Src and ATP [1]: c-Src induced binding of MUC1-CD to HSP90

Second part, led by results:

percent of the total HSP70 pool associated with MUC1 [2]: 0.6%
Molecule: MUC1 (human, full length, expressed in cells) (from UniProt P15941 24-1255)

c-Src activation as determined by autophosphorylation (c-Src; HRG 20 ng/ml 10 minutes): activated c-Src
Molecule: heregulin [HRG]
binding of MUC1-CD to HSP90 on HRG stimulation ([3]; HCT116/MUC1-CD (Flag-MUC1-CD) cells, HRG 10 minutes): stimulated binding of MUC1-CD to HSP90
binding of MUC1 and HSP90 on HRG stimulation ([3]; HCT116/MUC1 cells, HRG 20 ng/ml 10 minutes): increase in binding of MUC1 and HSP90
binding of endogenous MUC1 and HSP90 on HRG stimulation ([3]; MCF-7 breast cancer cells, HRG 10 minutes): increased binding of MUC1 and HSP90
binding of endogenous MUC1 and HSP90 on HRG stimulation ([3]; ZR-75-1 breast cancer cells, HRG 10 minutes): increased binding of MUC1 and HSP90
binding of cytosolic MUC1-C and HSP90 ([3]; cytosolic fraction of HCT116/MUC1 cells, HRG 10 minutes, anti-HSP90 precipitates): increases binding of cytosolic MUC1-C and HSP90
binding of MUC1 and HSP90 at the cell membrane ([3]; purified cell membranes of HCT116/MUC1 cells, HRG 10 minutes): stimulates binding of MUC1 and HSP90 at the cell membrane
binding of MUC1-CD to HSP70 on HRG stimulation ([4]; HCT116/MUC1-CD (Flag-MUC1-CD) cells): little effect on binding of MUC1-CD to HSP70
binding of endogenous MUC1 and HSP70 on HRG stimulation ([4]; MCF-7 breast cancer cells): little if any effect on this interaction
binding of endogenous MUC1 and HSP70 on HRG stimulation ([4]; ZR-75-1 breast cancer cells): no apparent effect on the constitutive interaction between MUC1 and HSP70
cytosolic MUC1-C levels (cytosolic MUC1-C levels): increase in cytosolic MUC1-C levels
localization of MUC1-C to mitochondria on HRG stimulation ([5]; HRG 10 minutes): induces localization of MUC1-C, and not MUC1-N, to mitochondria

binding to HSP70 [6]: binding to HSP70 was detected
binding to HSP90 after incubation with c-Src and ATP [1]: no detectable binding of HSP90
Molecule: MUC1-CD(46-72): GST fusion of amino acids 46-72 (YEKVSAGNGGSSLSYTNPAVAATSANL; SEQ ID NO:2) of the human MUC1 CD (not fully specified; also: fused to GST)

binding result [7]: no binding
B1: GST-MUC1-CD(1-45) (other)
chain: CQCRRKNYGQLDIFPARDTYHPMSEYPTYHTHGRYVPPSSTDRSP
modifications: not fully specified; cysteine pairing not given here; also: N-terminal GST fusion (pGEX-4T), sequence not given here
notes: Deletion mutant of MUC1-CD on glutathione beads; it lacks Y-46; not shown: glutathione S-transferase (GST) tag encoded by the pGEX-4T vector
